Calls of active or inactive are those of the source. The calls are words filed in the database; no cut-off is given here.
Columns and labels:
Estrogen receptor [1] = biological target: T1, Estrogen receptor (Homo sapiens, UniProt P03372)
T1 sequence (P03372 whole entry): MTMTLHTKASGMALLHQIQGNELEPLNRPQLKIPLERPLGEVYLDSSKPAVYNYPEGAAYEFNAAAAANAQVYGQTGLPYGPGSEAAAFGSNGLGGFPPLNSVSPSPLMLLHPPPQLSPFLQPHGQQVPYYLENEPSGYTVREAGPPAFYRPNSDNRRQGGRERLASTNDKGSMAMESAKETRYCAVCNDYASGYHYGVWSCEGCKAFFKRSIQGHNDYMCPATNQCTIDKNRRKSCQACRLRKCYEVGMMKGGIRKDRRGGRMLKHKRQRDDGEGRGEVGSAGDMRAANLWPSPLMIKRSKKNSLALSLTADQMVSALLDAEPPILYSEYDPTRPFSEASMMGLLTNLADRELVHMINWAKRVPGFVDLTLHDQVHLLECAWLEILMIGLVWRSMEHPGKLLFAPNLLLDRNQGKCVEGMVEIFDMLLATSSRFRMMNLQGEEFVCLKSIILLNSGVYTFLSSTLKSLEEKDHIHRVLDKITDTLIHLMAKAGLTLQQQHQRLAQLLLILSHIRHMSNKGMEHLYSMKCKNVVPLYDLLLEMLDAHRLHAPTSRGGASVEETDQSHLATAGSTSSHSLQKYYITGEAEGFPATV
Description: Binding affinity to ERalpha

Estrogen receptor beta = Estrogen receptor beta (Homo sapiens, UniProt Q92731)
Chain of Estrogen receptor beta (Q92731 whole entry): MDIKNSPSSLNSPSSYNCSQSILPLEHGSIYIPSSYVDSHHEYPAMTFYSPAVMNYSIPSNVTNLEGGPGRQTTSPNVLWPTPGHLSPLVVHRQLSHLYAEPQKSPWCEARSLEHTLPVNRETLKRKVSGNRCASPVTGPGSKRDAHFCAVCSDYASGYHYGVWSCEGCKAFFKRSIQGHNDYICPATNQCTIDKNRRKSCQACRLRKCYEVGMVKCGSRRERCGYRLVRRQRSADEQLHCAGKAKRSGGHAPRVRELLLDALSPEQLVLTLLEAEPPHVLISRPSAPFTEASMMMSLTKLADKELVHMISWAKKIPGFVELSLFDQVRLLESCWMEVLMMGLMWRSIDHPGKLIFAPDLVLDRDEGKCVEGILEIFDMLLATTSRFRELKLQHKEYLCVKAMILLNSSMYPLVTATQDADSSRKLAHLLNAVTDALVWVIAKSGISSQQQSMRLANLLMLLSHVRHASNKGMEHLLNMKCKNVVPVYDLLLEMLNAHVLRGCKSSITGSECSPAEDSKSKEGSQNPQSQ
Description: Binding affinity to ERbeta

Estrogen receptor [2] = biological target: T2, Estrogen receptor (Homo sapiens, UniProt Q92731+P03372); settings: ishikawa
Description: Inhibition of estrogen receptor in Ishikawa cells

Estrogen receptor [3] = biological target: T2, Estrogen receptor; settings: mcf7
Description: Inhibition of estrogen receptor in MCF7 cells

Estrogen receptor [4] = biological target: T2, Estrogen receptor; experiment: Agonist activity at estrogen receptor in MCF7 cells; format: functional, cell-based
Rattus norvegicus [5] = experiment: (§1) Ability to block estrone-induced increase in uterine wet weight in immature rat at […], po after 3 days by uterotropic assay; format: functional; settings: 72 h
Rattus norvegicus [6] = experiment: Ability to block estrone-induced increase in uterine wet weight in immature rat at 0.42 mg/kg/day, po after 3 days by uterotropic assay; format: functional; settings: 72 h
Rattus norvegicus [7] = experiment: as §1; format: functional; settings: 72 h; remark: listed apart in the source
Rattus norvegicus [8] = organism: Rattus norvegicus; experiment: Inhibition of bone loss in ovariectomized rat; format: functional, organism-based
Rattus norvegicus [9] = organism: Rattus norvegicus; experiment: Reduction in serum cholesterol level in ovariectomized rat; format: functional; parameters: scale not given: the % may be the effect or the level left
Rattus norvegicus [10] = experiment: (§2) Increase in vaginal fluid in ovariectomized rat at […], po; format: functional, organism-based; parameters: dose 0.14 mg/kg
Rattus norvegicus [11] = experiment: as §2; format: functional, organism-based; parameters: dose 1.4 mg/kg
Rattus norvegicus [12] = experiment: Ability to suppress increase of tail skin temperature in morphine-dependent rat at […].day, po; format: functional, organism-based; parameters: dose 1.4 mg/kg
[13] = Bioavailability in rat plasma; format: ADME, organism-based
Rattus norvegicus [14] = organism: Rattus norvegicus; experiment: Ability to suppress increase of tail skin temperature in morphine-dependent rat; format: functional, organism-based

| SMILES | IC50 (Estrogen receptor [2]) [nM] | EC50 (Estrogen receptor [4]) [nM] | bioavailability [13] [%] | IC50 (Estrogen receptor [1]) [nM] | IC50 (Estrogen receptor beta) [nM] | IC50 (Estrogen receptor [3]) [nM] | inhibition in vivo at […] (Rattus norvegicus [5]) [%] | inhibition in vivo at 0.42 mg/kg/day (Rattus norvegicus [6]) [%] | inhibition in vivo at […] (Rattus norvegicus [7]) [%] | Activity (Rattus norvegicus [8]) | Activity (Rattus norvegicus [9]) [%] | Activity (Rattus norvegicus [10]) | Activity (Rattus norvegicus [11]) | Activity (Rattus norvegicus [12]) | Activity (Rattus norvegicus [14]) |
| --- | --- | --- | --- | --- | --- | --- | --- | --- | --- | --- | --- | --- | --- | --- | --- |
| Oc1ccc2c(c1)O[C@@H](c1ccc(OCCN3CCCCC3)cc1)C1=C2COc2cc(O)ccc21 | 17.1 |  |  | 0.61 | 1.3 | 416 |  |  |  |  |  |  |  |  |  |
| CN(C)c1ccc(C2Oc3cc(O)ccc3C3=C2c2ccc(O)cc2OC3)cc1 (stereo not drawn) | 3800 | 71 |  |  |  |  |  |  |  |  |  |  |  |  |  |
| CN(C)CCOc1ccc(C2Oc3cc(O)ccc3C3=C2c2ccc(O)cc2OC3)cc1 (stereo not drawn) | 180 |  |  |  |  | 220 |  |  |  |  |  |  |  |  |  |
| Oc1ccc2c(c1)OC(c1ccc(OCCN3CCCCC3)cc1)C1=C2COc2cc(O)ccc21 (stereo not drawn) | 12 |  |  |  |  | 110 |  |  |  |  |  |  |  |  |  |
| Oc1ccc2c(c1)O[C@H](c1ccc(OCCN3CCCCC3)cc1)C1=C2COc2cc(O)ccc21 | 43.3 |  |  | 51 | 20.3 | 599 |  |  |  |  |  |  |  |  |  |

Second part, led by results:

| IC50 (Estrogen receptor [2]) [nM] | EC50 (Estrogen receptor [4]) [nM] | bioavailability [13] [%] | SMILES | IC50 (Estrogen receptor [1]) [nM] | IC50 (Estrogen receptor beta) [nM] | IC50 (Estrogen receptor [3]) [nM] | inhibition in vivo at […] (Rattus norvegicus [5]) [%] | inhibition in vivo at 0.42 mg/kg/day (Rattus norvegicus [6]) [%] | inhibition in vivo at […] (Rattus norvegicus [7]) [%] | Activity (Rattus norvegicus [8]) | Activity (Rattus norvegicus [9]) [%] | Activity (Rattus norvegicus [10]) | Activity (Rattus norvegicus [11]) | Activity (Rattus norvegicus [12]) | Activity (Rattus norvegicus [14]) |
| --- | --- | --- | --- | --- | --- | --- | --- | --- | --- | --- | --- | --- | --- | --- | --- |
| 175 |  | 11 | CC(C)(C)C(=O)Oc1ccc2c(c1)O[C@H](c1ccc(OCCN3CCCCC3)cc1)C1=C2COc2cc(OC(=O)C(C)(C)C)ccc21 | > 10000 | > 10000 | 510 | 27 | 55 | 75 | Dose-dependent effect | 33 | Active | Active | Active |  |
| 99 |  | 9 | CC(C)(C)C(=O)Oc1ccc2c(c1)O[C@@H](c1ccc(OCCN3CCCCC3)cc1)C1=C2COc2cc(OC(=O)C(C)(C)C)ccc21 | > 1000 | > 10000 | 670 | 55 | 88 | 100 | Dose-dependent effect | 33 |  |  |  | inactive |
